The text below walks through data of article PMC13382108 (Frontiers in Pharmacology, 2026).

The data set is described as follows: In vivo pharmacokinetic study in rats (plasma, HPLC). Particulars: SD rats, intragastric, FLU 40 mg/kg alone, as TF-1 (+48 mg/kg TDS) or TF-2 (+96 mg/kg TDS). As for the experimental part:
A total of 25 healthy male SD rats were used. After adaptive feeding, rats were randomly divided into five groups (n = 5). […] Blood samples were placed in heparin-pretreated centrifuge tubes. Whole blood was centrifuged at 6,000 rpm for 3 min to separate plasma, which was stored at −20 °C or −80 °C for subsequent analysis. […] The mean plasma concentration-time curves were plotted. The non-compartmental model in DAS 2.1.1 software was used to calculate major pharmacokinetic parameters. The pharmacokinetic interactions after combined medication were evaluated by comparing parameters between monotherapy groups and TF combination groups.

For `CNCCC(Oc1ccc(C(F)(F)F)cc1)c1ccccc1` (stereo not shown) [FLU, Fluoxetine], the “t1/2z of FLU” value is given as 6.563 h.
